Test [1] concerns the target T1, PDIA1 (protein disulphide isomerase A1) (Homo sapiens, UniProt P07237).
T1 construct: gene P4HB; recombinant, full length, 18-508aa, His-tag, E. coli
Briefly: insulin reduction turbidimetric assay with recombinant enzyme. It is filed as biochemical. The conditions noted are these: read-out: Enzymatic Activity, % of Initial / PDIA1.

A further test deals with T2, PDIA3 (Homo sapiens, UniProt P30101).
T2 construct: recombinant, 25-505aa, His-tag, E. coli
T2 sequence (P30101 25-505): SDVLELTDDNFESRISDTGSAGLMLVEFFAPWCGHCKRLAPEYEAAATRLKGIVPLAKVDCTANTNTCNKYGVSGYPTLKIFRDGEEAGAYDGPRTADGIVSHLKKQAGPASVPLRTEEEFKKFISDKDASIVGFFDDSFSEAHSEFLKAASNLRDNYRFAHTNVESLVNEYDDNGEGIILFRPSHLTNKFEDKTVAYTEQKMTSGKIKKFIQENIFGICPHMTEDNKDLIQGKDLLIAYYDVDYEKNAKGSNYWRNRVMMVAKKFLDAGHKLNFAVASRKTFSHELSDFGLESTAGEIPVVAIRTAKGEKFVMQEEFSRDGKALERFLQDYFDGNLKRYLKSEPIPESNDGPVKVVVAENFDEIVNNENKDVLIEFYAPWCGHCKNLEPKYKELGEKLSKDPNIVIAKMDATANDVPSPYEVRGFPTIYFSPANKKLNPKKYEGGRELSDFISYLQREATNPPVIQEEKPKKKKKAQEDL
The test is described as above. It is filed as biochemical. The conditions noted are these: read-out: Enzymatic Activity, % of Initial / PDIA3.

T1 sequence (P07237 18-508): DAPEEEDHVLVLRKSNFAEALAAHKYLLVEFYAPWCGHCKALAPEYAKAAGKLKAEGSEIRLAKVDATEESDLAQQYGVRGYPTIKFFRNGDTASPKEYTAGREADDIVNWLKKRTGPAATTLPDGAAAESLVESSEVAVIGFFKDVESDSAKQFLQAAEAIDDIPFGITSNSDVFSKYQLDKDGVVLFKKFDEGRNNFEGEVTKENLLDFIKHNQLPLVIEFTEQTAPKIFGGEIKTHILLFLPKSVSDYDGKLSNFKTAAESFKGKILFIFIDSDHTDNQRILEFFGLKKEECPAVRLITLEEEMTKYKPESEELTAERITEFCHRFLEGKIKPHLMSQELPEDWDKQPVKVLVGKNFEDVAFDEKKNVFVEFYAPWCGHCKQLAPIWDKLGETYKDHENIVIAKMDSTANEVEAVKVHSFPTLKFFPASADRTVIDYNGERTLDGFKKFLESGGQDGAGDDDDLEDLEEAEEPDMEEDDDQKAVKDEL

For bepristat 2a, the IC50 worked out at 2.1 µM in test [1] and 127 µM at PDIA3.

Source of the values: article PMC7601413, “Protein Disulphide Isomerase A1 Is Involved in the Regulation of Breast Cancer Cell Adhesion and Transmigration via Lung Microvascular Endothelial Cells” (Cancers, 2020).
